Experimental data published in patent publication US20240360082A1, “SUBSTITUTED PYRIDONE COMPOUNDS USEFUL TO TREAT ORTH[…]” (priority 2021, published 2024).

Each compound was assayed against influenza A virus minigenome (PB2, PB1, PA, NP proteins) (UniProt P04665). Conditions: read-out: RNP_ Hubei B IC50.
Format: cell-based

Chain of influenza A virus minigenome (PB2, PB1, PA, NP proteins) (P04665 whole entry): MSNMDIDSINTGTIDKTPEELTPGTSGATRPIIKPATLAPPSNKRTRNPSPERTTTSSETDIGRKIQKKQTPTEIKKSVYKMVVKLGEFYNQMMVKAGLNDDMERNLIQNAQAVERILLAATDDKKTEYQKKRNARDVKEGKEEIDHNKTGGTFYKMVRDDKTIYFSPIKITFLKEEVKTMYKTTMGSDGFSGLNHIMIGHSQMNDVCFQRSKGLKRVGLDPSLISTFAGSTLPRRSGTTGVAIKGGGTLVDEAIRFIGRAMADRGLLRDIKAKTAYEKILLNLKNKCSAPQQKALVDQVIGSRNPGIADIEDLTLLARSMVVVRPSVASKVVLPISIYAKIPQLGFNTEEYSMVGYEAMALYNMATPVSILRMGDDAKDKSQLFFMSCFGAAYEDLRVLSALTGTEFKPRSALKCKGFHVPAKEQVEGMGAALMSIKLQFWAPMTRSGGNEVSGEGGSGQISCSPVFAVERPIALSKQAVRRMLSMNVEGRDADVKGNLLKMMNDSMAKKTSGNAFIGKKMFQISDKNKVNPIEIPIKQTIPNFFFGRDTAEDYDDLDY

`C[C@]1(CF)COC[C@@H](COc2ccc(-c3cc(C(N)=O)c(=O)[nH]c3C(F)(F)F)cc2)O1` [Example 420, 5-(4-(((2S,6R)-6-(fluoromethyl)-6-methyl-1,4-dioxan-2-yl)methoxy)phenyl)-2-oxo-6-(trifluoromethyl)-1,2-dihydropyridine-3-carboxamide] and `CN(C)C[C@@]1(C)COC[C@@H](COc2ccc(-c3cc(C(N)=O)c(=O)[nH]c3C(F)(F)F)cc2)O1` [Example 423, 5-(4-(((2S,6S)-6-((dimethylamino)methyl)-6-methyl-1,4-dioxan-2-yl)methoxy)phenyl)-2-oxo-6-(trifluoromethyl)-1,2-dihydropyridine-3-carboxamide] fall in the same range of IC50: 5 to 10 µM for the first, 5 to 10 µM for the second.

`COC[C@@]1(CCl)COC[C@@H](COc2ccc(-c3cc(C(N)=O)c(=O)[nH]c3C(F)(F)F)cc2)O1` [Example 418, 5-(4-(((2S,6S)-6-(chloromethyl)-6-(methoxymethyl)-1,4-dioxan-2-yl)methoxy)phenyl)-2-oxo-6-(trifluoromethyl)-1,2-dihydropyridine-3-carboxamide] and `[2H]C([2H])([2H])OC[C@@]1(C)COC[C@@H](COc2ccc(-c3cc(C(N)=O)c(=O)[nH]c3C(F)(F)F)cc2)O1` [Example 410, 5-(4-(((2S,6S)-6-((methoxy-d3)methyl)-6-methyl-1,4-dioxan-2-yl)methoxy)phenyl)-2-oxo-6-(trifluoromethyl)-1,2-dihydropyridine-3-carboxamide] fall in the same range of IC50: 5 to 10 µM for the first, 5 to 10 µM for the second.

`NC(=O)c1cc(-c2ccc(OCC3COCCOC3)cc2)c(C(F)(F)F)[nH]c1=O` [Example 320, 5-(4-((1,4-dioxepan-6-yl)methoxy)phenyl)-2-oxo-6-(trifluoromethyl)-1,2-dihydropyridine-3-carboxamide] and `NC(=O)c1cc(-c2ccc(OC[C@@H]3COCC4(COCCOC4)O3)cc2)c(C(F)(F)F)[nH]c1=O` [Example 416, (S)-5-(4-((1,4,8,11-tetraoxaspiro[5.6]dodecan-2-yl)methoxy)phenyl)-2-oxo-6-(trifluoromethyl)-1,2-dihydropyridine-3-carboxamide] fall in the same range of IC50: 5 to 10 µM for the first, 5 to 10 µM for the second.

Compared with `CC1COC(COc2ccc(-c3cc(C(N)=O)c(=O)[nH]c3C(F)(F)F)cc2)CO1` (single isomer, unassigned) [Example 322, 5-(4-((5-methyl-1,4-dioxan-2-yl)methoxy)phenyl)-2-oxo-6-(trifluoromethyl)-1,2-dihydropyridine-3-carboxamide], `C[C@]12O[C@H](COc3ccc(-c4cc(C(N)=O)c(=O)[nH]c4C(F)(F)F)cc3)CO[C@H]1C2(F)F` [Example 394, 5-(4-(((1S,3S,6R)-7,7-difluoro-1-methyl-2,5-dioxabicyclo[4.1.0]heptan-3-yl)methoxy)phenyl)-2-oxo-6-(trifluoromethyl)-1,2-dihydropyridine-3-carboxamide] is lower in IC50: 25 to 50 µM for the first, 5 to 10 µM for the second. The second is the more potent here.

`NC(=O)c1cc(-c2ccc(OCc3cnco3)cc2)c(C(F)(F)F)[nH]c1=O` [Example 267, 5-(4-(oxazol-5-ylmethoxy)phenyl)-2-oxo-6-(trifluoromethyl)-1,2-dihydropyridine-3-carboxamide] and `NC(=O)c1cc(-c2ccc(OCc3cocn3)cc2)c(C(F)(F)F)[nH]c1=O` [Example 266, 5-(4-(oxazol-4-ylmethoxy)phenyl)-2-oxo-6-(trifluoromethyl)-1,2-dihydropyridine-3-carboxamide] fall in the same range of IC50: 25 to 50 µM for the first, 25 to 50 µM for the second.

`CC1(COc2ccc(-c3cc(C(N)=O)c(=O)[nH]c3C(F)(F)F)cc2)COC1` [Example 227] and `Cc1ncc(COc2ccc(-c3cc(C(N)=O)c(=O)[nH]c3C(F)(F)F)cc2)s1` [Example 271, 5-(4-((2-methylthiazol-5-yl)methoxy)phenyl)-2-oxo-6-(trifluoromethyl)-1,2-dihydropyridine-3-carboxamide] fall in the same range of IC50: 25 to 50 µM for the first, 25 to 50 µM for the second.

`NC(=O)c1cc(-c2ccc(OCC3COCC(COCC4(F)CC4)O3)cc2)c(C(F)(F)F)[nH]c1=O` (single isomer, unassigned) [Example 365, 5-(4-((6-(((1-fluorocyclopropyl)methoxy)methyl)-1,4-dioxan-2-yl)methoxy)phenyl)-2-oxo-6-(trifluoromethyl)-1,2-dihydropyridine-3-carboxamide] and `CC(C)n1cc2c(n1)COCC2COc1ccc(-c2cc(C(N)=O)c(=O)[nH]c2C(F)(F)F)cc1` (single isomer, unassigned) [Example 295, 5-(4-((2-isopropyl-2,4,5,7-tetrahydropyrano[3,4-c]pyrazol-4-yl)methoxy)phenyl)-2-oxo-6-(trifluoromethyl)-1,2-dihydropyridine-3-carboxamide] fall in the same range of IC50: 5 to 10 µM for the first, 5 to 10 µM for the second.

With `CCc1cc(COc2ccc(-c3cc(C(N)=O)c(=O)[nH]c3C(F)(F)F)cc2)n(C)n1` [Example 262, 5-(4-((3-ethyl-1-methyl-1H-pyrazol-5-yl)methoxy)phenyl)-2-oxo-6-(trifluoromethyl)-1,2-dihydropyridine-3-carboxamide] the IC50 was 25 to 50 µM.

Same assay, conditions: read-out: RNP_Hubei B

First: NC(=O)c1cc(-c2ccc(CN3CCOCC34CC4)cc2)c(C(F)(F)F)[nH]c1=O [Example 30, 5-(4-((7-oxa-4-azaspiro[2.5]octan-4-yl)methyl)phenyl)-2-oxo-6-(trifluoromethyl)-1,2-dihydropyridine-3-carboxamide]
Second: CN1C(COc2ccc(-c3cc(C(N)=O)c(=O)[nH]c3C(F)(F)F)cc2)COCC12COC2 (centres unmarked) [Example 206, 5-(4-((5-methyl-2,8-dioxa-5-azaspiro[3.5]nonan-6-yl)methoxy)phenyl)-2-oxo-6-(trifluoromethyl)-1,2-dihydropyridine-3-carboxamide]
The IC50 of the first is lower: 5 to 10 µM for the first, 25 to 50 µM for the second. The first is the more potent here.

First: CC(Oc1ccc(-c2cc(C(N)=O)c(=O)[nH]c2C(F)(F)F)cc1)c1cccnc1 (single isomer, unassigned) [Example 80, (R or S)-2-oxo-5-(4-(1-(pyridin-3-yl)ethoxy)phenyl)-6-(trifluoromethyl)-1,2-dihydropyridine-3-carboxamide]
Second: NC(=O)c1cc(-c2ccc(Oc3ccccc3)cc2)c(C(F)(F)F)[nH]c1=O [Example 6, 2-oxo-5-(4-phenoxyphenyl)-6-(trifluoromethyl)-1,2-dihydropyridine-3-carboxamide]
The IC50 of the first is higher: 10 to 25 µM for the first, 1 to 5 µM for the second.

First: NC(=O)c1cc(-c2ccc(OCc3nccs3)cc2)c(C(F)(F)F)[nH]c1=O [Example 143, 2-oxo-5-(4-(thiazol-2-ylmethoxy)phenyl)-6-(trifluoromethyl)-1,2-dihydropyridine-3-carboxamide]
Second: N#Cc1cncc(COc2ccc(-c3cc(C(N)=O)c(=O)[nH]c3C(F)(F)F)cc2)c1 [Example 99, 5-(4-((5-cyanopyridin-3-yl)methoxy)phenyl)-2-oxo-6-(trifluoromethyl)-1,2-dihydropyridine-3-carboxamide]
The IC50 of the first is lower: 10 to 25 µM for the first, 25 to 50 µM for the second.

First: NC(=O)c1cc(-c2ccc(OCc3cccc(C(F)(F)F)c3)cc2)c(C(F)(F)F)[nH]c1=O [Example 79, 2-oxo-6-(trifluoromethyl)-5-(4-((3-(trifluoromethyl)benzyl)oxy)phenyl)-1,2-dihydropyridine-3-carboxamide]
Second: NC(=O)c1cc(-c2ccc(CN3CCOCC3)cc2F)c(C(F)(F)F)[nH]c1=O [Example 42, 5-(2-fluoro-4-(morpholinomethyl)phenyl)-2-oxo-6-(trifluoromethyl)-1,2-dihydropyridine-3-carboxamide]
The IC50 of the first is lower: 5 to 10 µM for the first, 10 to 25 µM for the second. The first is the more potent here.
